Test results: patent US20200113854A1, “Composition for Improving Brain Function” (MORINAGA MILK INDUSTRY CO., LTD., priority 2017, published 2020)

Test system: Alzheimer's disease model mice
Experimental: With reference to NPL 6, Alzheimer's disease model mice were prepared according to the following procedure and the improvement effect of acetic acid was evaluated.
Taking the day when the administration was started as Day 1, amyloid was injected on Day 3. Specifically, an animal was anesthetized by intraperitoneally administering 40 mg/kg of pentobarbital sodium (Tokyo Chemical Industry Co., Ltd.) (amount of liquid administered: 10 mL/kg). After anesthesia, levobupivacaine hydrochloride (Popscaine (registered tradename) 0.25% inj., Maruishi Pharmaceutical Co. Ltd.) was subcutaneously administered (0.1 mL) to the scalp. After anesthesia, hair of a parietal region of the animal was cut and the head was fixed on a brain stereotaxic apparatus.
The scalp was disinfected with ethanol for disinfection and then was cut to expose the cranial bone. […]
An animal was placed in any one arm of the Y-shaped maze and was allowed to freely sleuth in the maze for 8 minutes. The order of the arms that the animal moved during the measurement period was recorded and the number of the movements to arms was counted and taken as a total entry number. […]
A spontaneous alternation action rate was calculated with the following formula. […]

Q: How did the “Spontaneous alternation action rate (%)” value (Amyloid β injection group, 150 mM sodium acetate with drinking water, Y-maze 8 minutes, p < 0.01 vs Amyloid β + physiological saline) turn out when CC(=O)[O-].[Na+] [Sodium acetate, sodium acetate] was run?
A: 67.5%

Q: And the “cognitive function of Alzheimer disease model mice” value (intake of 150 mM sodium acetate with drinking water)?
A: improved a cognitive function
